Results reported in US9452036B2, “Dental ultrasonic drug delivery system and dental ultrasonic drug delivery method” (priority 2009, dated 2016).

Columns and labels:
[1] = tested on: E. Coli; assay: In vitro tubule sterilization test using sodium hypochlorite and nanobubbles (extracted bovine teeth); type: cell-based; conditions: for OD600 value: paper point cultured 12 hours
Experimental: Using ten extracted bovine teeth (anterior teeth), the apical area of each of the teeth was filled with photopolymerization type ionomer cement. Then, the inside of the root cavity was treated with 6% sodium hypochlorite, irrigated, and sterilized with an autoclave. Thereafter, the inside of the root canal was sufficiently irrigated with a sterilized saline solution, dried with a paper point, filled with an E. Coli saturated solution, and then cultured in a humidity bath at 37° C. for a night. Then, the E. Coli solution in the root canal was sucked with a paper point, and the root canal was filled with an irrigation solution and 1% or 0.1% sodium hypochlorite. Thereafter, 5% nanobubbles were injected into the root canal, and ultrasound was applied thereto at a voltage of 30 V, a frequency of 1.186 MHz, a burst rate of 18.8 Hz, and a pulse-duty ratio of 50% for 120 seconds. Subsequently, the root canal was sufficiently irrigated with a saline solution, and the tooth was left for one minute with a paper point inserted into the root canal. Then, the paper point was cultured. After 12 hours, the amount of bacteria was measured with an absorbance OD600.

[2] = In-vitro test for drug permeation in root canal using ultrasound and nanobubbles (extracted canine tooth, fluorescence); type: in vitro ADME
Text: After an extracted canine tooth had been subjected to access cavity preparation and root canal enlargement (to #60) by common methods, a smear layer was removed with a Smear Clean (Nippon Shika Yakuhin Co., Ltd.), and the tooth was refrigerated in a saline solution until being used in an experiment. Then, the inside of the root canal was sufficiently dried with a cotton plug. Thereafter, to prevent a drug solution from leaking from the root canal, an apical area was filled with a Unifast III (GC Corporation). Subsequently, nanobubbles were diluted with a saline solution such that the concentration of the nanobubbles is 5% or 10% (where the bubble concentration will be expressed in terms of vol % hereinafter), thereby preparing a drug solution containing 4.5 mg/ml tetracycline (SIGMA088K0680). The 5% nanobubbles herein mean that the concentration of the nanobubbles is 6×10^8/ml. The 10% nanobubbles herein mean that the concentration of the nanobubbles is 1.2×10^9/ml. Since even a small amount of deposited tetracycline produces fluorescence when irradiated with ultraviolet radiation, a deposition site can be easily detected with a fluorescence microscope. As a control, microbubbles (Optison (Molecular Biosystems Inc., San Diego)) were used, and a 5% or 10% drug solution was used. The 5% microbubbles herein mean that the concentration of the microbubbles is 6×10^8/ml. The 10% microbubbles herein mean that the concentration of the microbubbles is 1.2×10^9/ml. Then, 20 μl of the drug solution was applied into the root canal, and using an ultrasound generator (SonoPore KTAC-4000), an ultrasonic device with a diameter of 1 mm of a detachable irradiation tube propagation type probe (i.e., an applicator type in which a Langevin transducer is provided inside a probe body) was inserted into the root canal, and the device was operated. Operating conditions were that the voltage was 30 V (0.13-0.20 W indicated by a meter) or 31 V, the frequency was 1.186 MHz, the burst rate was 18.8 Hz, the pulse-duty ratio was 50%, and the application time was 120 seconds. After a lapse of the application time, the dilution solution was sufficiently removed with a cotton plug, and then a section with a thickness of 150 μm was prepared with a saw microtome (Leica SP1600), and a microscopic examination was performed with a stereomicroscope under ultraviolet irradiation. The degree of delivery of the drug into dentin tubules was observed based on fluorescence reaction.

[3] = tested on: kanamycin-resistant enterococcus faecalis (lactococcus); assay: In vivo tubule sterilization test using ultrasound and nanobubbles (canine tooth root canal)
Experimental: After a canine tooth had been subjected to access cavity preparation and root canal enlargement (to #60) in vivo by common methods, a smear layer was removed with a Smear Clean (Nippon Shika Yakuhin Co., Ltd.). Then, the inside of the root canal was sufficiently dried with a cotton plug. Thereafter, 10 μl of a bacterial culture (a brain heart infusion (BHI) broth, Nissui Pharmaceuticals Co., Ltd., containing kanamycin) in which kanamycin-resistant enterococcus faecalis (lactococcus) subjected to gene transfer of pEGFP-C1 (clontech) was cultured was injected into each root canal. Subsequently, the root canal was temporarily sealed with zinc phosphate cement. Then, after 7 days, the root canal was irrigated with 3 ml of a saline solution. Thereafter, 20 μl of a drug solution containing 10% nanobubbles and 50 μg/ml of ampicillin was applied into the root canal. Then, with an ultrasound generator (SonoPore KTAC-4000), an ultrasonic device with a diameter of 1 mm of a detachable irradiation tube propagation type probe (i.e., an applicator type in which a Langevin transducer is provided inside a probe body) was inserted into the root canal, and ultrasound was delivered at a voltage of 30 V, a frequency of 1.186 MHz, a burst rate of 18.8 Hz, and a pulse-duty ratio of 50% for an application time of 120 seconds. […]

## OCl [sodium hypochlorite]
[1]; 0.1% sodium hypochlorite
  sterilization of the inside of the root canal: sterilized only in the presence of 5% nanobubbles
[1]; 1% sodium hypochlorite, irrespective of the presence of 5% nanobubbles
  bactericidal effect in the root canal: a bactericidal effect was obtained
[1]; sodium hypochlorite 1.0, 5% nanobubbles +, ultrasound 30 V 120 seconds
  OD600 value: 0
[1]; sodium hypochlorite 1.0, 5% nanobubbles −
  OD600 value: 0

## CN(C)[C@@H]1C(O)=C(C(N)=O)C(=O)[C@@]2(O)C(O)=C3C(=O)c4c(O)cccc4[C@@](C)(O)[C@H]3C[C@@H]12 [tetracycline]
[2]; 5% microbubbles, no ultrasound (FIG. 21E)
  degree of delivery of the drug to dentin tubules: insufficient
[2]; 5% microbubbles, ultrasound 30 V (FIG. 21D)
  degree of delivery of the drug to dentin tubules: insufficient
[2]; 5% nanobubbles, no ultrasound (FIG. 21C)
  degree of delivery of the drug to dentin tubules: insufficient
[2]; 5% nanobubbles, ultrasound 30 V, 120 seconds, 4.5 mg/ml tetracycline (FIG. 21A)
  degree of delivery of the drug to dentin tubules: high
[2]; 5% nanobubbles, ultrasound 31 V (FIG. 21B)
  degree of delivery of the drug to dentin tubules: insufficient
[2]; 10% microbubbles, no ultrasound (FIG. 22E)
  degree of delivery of the drug to dentin tubules: insufficient
[2]; 10% microbubbles, ultrasound 30 V (FIG. 22D)
  degree of delivery of the drug to dentin tubules: insufficient
[2]; 10% nanobubbles, no ultrasound (FIG. 22C)
  degree of delivery of the drug to dentin tubules: insufficient
[2]; 10% nanobubbles, ultrasound 30 V, 120 seconds, 4.5 mg/ml tetracycline (FIG. 22A)
  degree of delivery of the drug to dentin tubules: high
[2]; 10% nanobubbles, ultrasound 31 V (FIG. 22B)
  degree of delivery of the drug to dentin tubules: insufficient
[2]; bubble concentrations of 5% and 10%
  drug permeation with nanobubbles compared with microbubbles: more significantly permeates
[2]; ultrasound 30 V (FIGS. 21A and 22A)
  degree of delivery of the drug to dentin tubules, 10% nanobubbles compared with 5% nanobubbles: higher

## CC1(C)S[C@@H]2[C@H](NC(=O)[C@H](N)c3ccccc3)C(=O)N2[C@H]1C(=O)O [ampicillin]
[3]; 50 μg/ml ampicillin delivered using 10% nanobubbles and ultrasound 30 V, 120 seconds, fourth day (FIG. 25A)
  bacteria in the lateral wall of the root canal: no bacteria were observed
[3]; only ampicillin, fourth day (FIG. 25B)
  bacteria in the lateral wall of the root canal: bacteria were not completely killed
